# What was measured:
# Assay in all cases: KINOMEscan
# Assay type in all cases: binding
# [1] = biological target: T1, CDC2L5 (Homo sapiens, UniProt Q14004)
# T1 construct: purchased Eurofins DiscoverX KINOMEscan
# Outline: (§1)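 Read-out is qPCR of kinase not bound to the test compound, recovered by capture on an immobilized affinity ligand after a 1 h room-temperature binding step. Dissociation constants came from 12 half-log dilutions starting at 33 μM.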
# [2] = biological target: T2, PRKR (Homo sapiens, UniProt P19525)
# T2 construct: purchased Eurofins DiscoverX KINOMEscan
# Outline: as §1
# [3] = biological target: T3, PLK3 (Homo sapiens, UniProt Q9H4B4)
# T3 construct: purchased Eurofins DiscoverX KINOMEscan
# Outline: as §1
# [4] = biological target: T4, MAP3K19 (Homo sapiens, UniProt Q56UN5)
# T4 construct: purchased Eurofins DiscoverX KINOMEscan
# Outline: as §1
# [5] = biological target: T5, PIK4CB (Homo sapiens, UniProt Q9UBF8)
# T5 construct: purchased Eurofins DiscoverX KINOMEscan
# Outline: as §1
# [6] = biological target: T6, RPS6KA5 (Kin. Dom.2-C-term.) (Homo sapiens, UniProt O75582)
# T6 construct: RPS6KA5 (Kin. Dom.2-C-term.); purchased Eurofins DiscoverX KINOMEscan
# Outline: as §1
# [7] = biological target: T7, MAP4K2 (Homo sapiens, UniProt Q12851)
# T7 construct: purchased Eurofins DiscoverX KINOMEscan
# T7 sequence (Q12851 whole entry): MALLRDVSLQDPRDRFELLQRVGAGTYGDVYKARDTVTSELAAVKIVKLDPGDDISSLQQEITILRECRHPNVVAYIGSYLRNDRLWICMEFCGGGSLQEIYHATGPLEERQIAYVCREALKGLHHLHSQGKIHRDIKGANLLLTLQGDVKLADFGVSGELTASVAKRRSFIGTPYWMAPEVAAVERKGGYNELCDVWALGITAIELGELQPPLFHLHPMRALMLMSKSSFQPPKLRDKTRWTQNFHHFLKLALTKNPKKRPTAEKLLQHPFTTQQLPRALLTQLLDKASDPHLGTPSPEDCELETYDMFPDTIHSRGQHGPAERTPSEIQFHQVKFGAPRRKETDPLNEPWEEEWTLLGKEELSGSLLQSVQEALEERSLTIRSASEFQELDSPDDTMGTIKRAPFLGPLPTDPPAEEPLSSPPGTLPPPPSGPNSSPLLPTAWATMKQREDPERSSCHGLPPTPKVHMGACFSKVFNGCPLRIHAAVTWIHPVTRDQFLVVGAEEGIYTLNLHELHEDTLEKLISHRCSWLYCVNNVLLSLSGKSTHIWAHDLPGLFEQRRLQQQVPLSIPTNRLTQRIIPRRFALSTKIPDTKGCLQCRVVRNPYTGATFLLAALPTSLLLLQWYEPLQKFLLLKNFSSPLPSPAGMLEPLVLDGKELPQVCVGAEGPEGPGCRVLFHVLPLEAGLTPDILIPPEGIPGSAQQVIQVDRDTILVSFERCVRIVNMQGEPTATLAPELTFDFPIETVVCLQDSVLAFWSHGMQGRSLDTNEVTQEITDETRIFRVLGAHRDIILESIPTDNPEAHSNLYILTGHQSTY
# Outline: as §1
# [8] = biological target: T8, IKK-α (Homo sapiens, UniProt O15111)
# T8 construct: purchased Eurofins DiscoverX KINOMEscan
# Outline: as §1
# [9] = biological target: T9, AURKB (Homo sapiens, UniProt Q96GD4)
# T9 construct: purchased Eurofins DiscoverX KINOMEscan
# Outline: as §1
# [10] = biological target: T10, CSK (Homo sapiens, UniProt P41240)
# T10 construct: purchased Eurofins DiscoverX KINOMEscan
# Outline: as §1
# [11] = biological target: T11, RSK3 (Kin. Dom.1-N-term.) (Homo sapiens, UniProt Q15349)
# T11 construct: RSK3 (Kin. Dom.1-N-term.); purchased Eurofins DiscoverX KINOMEscan
# Outline: as §1
# [12] = biological target: T12, FES (Homo sapiens, UniProt P07332)
# T12 construct: purchased Eurofins DiscoverX KINOMEscan
# Outline: as §1
# [13] = biological target: T13, RSK1 (Kin. Dom.1-N-term.) (Homo sapiens, UniProt Q15418)
# T13 construct: RSK1 (Kin. Dom.1-N-term.); purchased Eurofins DiscoverX KINOMEscan
# Outline: as §1
# [14] = biological target: T14, AKT1 (Homo sapiens, UniProt P31749)
# T14 construct: purchased Eurofins DiscoverX KINOMEscan
# T14 sequence (P31749 whole entry): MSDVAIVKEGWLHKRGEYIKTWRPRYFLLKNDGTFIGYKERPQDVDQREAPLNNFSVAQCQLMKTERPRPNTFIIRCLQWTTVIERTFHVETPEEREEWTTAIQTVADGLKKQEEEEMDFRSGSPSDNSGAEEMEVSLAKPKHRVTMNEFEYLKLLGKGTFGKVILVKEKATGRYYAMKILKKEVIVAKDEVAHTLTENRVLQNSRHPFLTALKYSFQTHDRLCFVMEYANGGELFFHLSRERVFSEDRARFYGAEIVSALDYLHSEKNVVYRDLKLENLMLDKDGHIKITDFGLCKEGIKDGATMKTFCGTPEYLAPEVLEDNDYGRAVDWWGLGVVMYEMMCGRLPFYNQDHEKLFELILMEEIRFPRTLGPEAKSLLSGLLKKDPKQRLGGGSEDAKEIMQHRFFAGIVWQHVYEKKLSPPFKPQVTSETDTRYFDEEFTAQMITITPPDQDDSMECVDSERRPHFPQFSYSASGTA
# Outline: as §1
# [15] = biological target: T15, EPHB6 (Homo sapiens, UniProt O15197)
# T15 construct: purchased Eurofins DiscoverX KINOMEscan
# T15 sequence (O15197 32-1021): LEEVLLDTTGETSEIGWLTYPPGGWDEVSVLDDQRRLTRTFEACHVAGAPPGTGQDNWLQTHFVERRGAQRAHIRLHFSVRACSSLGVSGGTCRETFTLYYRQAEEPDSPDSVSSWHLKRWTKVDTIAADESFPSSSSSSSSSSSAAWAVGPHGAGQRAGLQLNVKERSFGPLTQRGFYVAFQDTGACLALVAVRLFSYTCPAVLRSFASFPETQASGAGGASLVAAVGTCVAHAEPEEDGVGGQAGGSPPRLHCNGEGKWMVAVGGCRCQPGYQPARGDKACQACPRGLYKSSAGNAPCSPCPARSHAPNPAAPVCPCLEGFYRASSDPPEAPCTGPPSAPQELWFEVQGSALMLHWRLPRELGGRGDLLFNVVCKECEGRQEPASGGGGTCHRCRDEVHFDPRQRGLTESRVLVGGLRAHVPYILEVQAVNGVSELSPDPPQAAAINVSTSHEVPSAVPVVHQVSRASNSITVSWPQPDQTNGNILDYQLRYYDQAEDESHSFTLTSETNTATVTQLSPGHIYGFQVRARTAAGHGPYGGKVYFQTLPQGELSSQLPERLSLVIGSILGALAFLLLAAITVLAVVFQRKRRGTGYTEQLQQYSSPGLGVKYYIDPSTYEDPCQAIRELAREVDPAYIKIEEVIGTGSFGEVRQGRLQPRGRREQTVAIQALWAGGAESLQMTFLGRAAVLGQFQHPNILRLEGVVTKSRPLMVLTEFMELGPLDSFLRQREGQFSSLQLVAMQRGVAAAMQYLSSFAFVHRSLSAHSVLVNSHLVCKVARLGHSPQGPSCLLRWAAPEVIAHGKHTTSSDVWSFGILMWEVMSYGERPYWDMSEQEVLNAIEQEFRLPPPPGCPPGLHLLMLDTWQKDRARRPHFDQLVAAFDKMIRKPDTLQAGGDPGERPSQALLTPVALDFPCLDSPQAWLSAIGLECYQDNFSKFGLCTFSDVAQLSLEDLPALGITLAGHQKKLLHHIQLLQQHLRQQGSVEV
# Outline: as §1
# [16] = biological target: T16, SRPK3 (Homo sapiens, UniProt Q9UPE1)
# T16 construct: purchased Eurofins DiscoverX KINOMEscan
# Outline: as §1
# [17] = biological target: T17, ERK8 (Homo sapiens, UniProt Q8TD08)
# T17 construct: purchased Eurofins DiscoverX KINOMEscan
# Outline: as §1
# [18] = biological target: T18, ABL1-P (Homo sapiens, UniProt P00519)
# T18 construct: purchased Eurofins DiscoverX KINOMEscan
# Outline: as §1
# [19] = biological target: T19, MYLK2 (Homo sapiens, UniProt Q9H1R3)
# T19 construct: purchased Eurofins DiscoverX KINOMEscan
# Outline: as §1
# [20] = biological target: T20, FLT3 (D835Y) (Homo sapiens, UniProt P36888, D835Y)
# T20 construct: purchased Eurofins DiscoverX KINOMEscan
# Outline: as §1
# [21] = biological target: T21, YANK3 (Homo sapiens, UniProt Q86UX6)
# T21 construct: purchased Eurofins DiscoverX KINOMEscan
# Outline: as §1
# [22] = biological target: T22, RET (M918T) (Homo sapiens, UniProt P07949, M918T)
# T22 construct: purchased Eurofins DiscoverX KINOMEscan
# Outline: as §1
# [23] = biological target: T23, EPHA5 (Homo sapiens, UniProt P54756)
# T23 construct: purchased Eurofins DiscoverX KINOMEscan
# Outline: as §1
# [24] = biological target: T24, p38-β (Homo sapiens, UniProt Q15759)
# T24 construct: purchased Eurofins DiscoverX KINOMEscan
# Outline: as §1
# [25] = biological target: T25, NDR1 (Homo sapiens, UniProt Q15208)
# T25 construct: purchased Eurofins DiscoverX KINOMEscan
# Outline: as §1
# [26] = biological target: T26, FAK (Homo sapiens, UniProt Q05397)
# T26 construct: purchased Eurofins DiscoverX KINOMEscan
# Outline: as §1
# [27] = biological target: T27, DCAMKL2 (Homo sapiens, UniProt Q8N568)
# T27 construct: purchased Eurofins DiscoverX KINOMEscan
# Outline: as §1
# [28] = biological target: T28, MKNK2 (Homo sapiens, UniProt Q9HBH9)
# T28 construct: purchased Eurofins DiscoverX KINOMEscan
# Outline: as §1
# [29] = biological target: T29, LZK (Homo sapiens, UniProt O43283)
# T29 construct: purchased Eurofins DiscoverX KINOMEscan
# Outline: as §1
# [30] = biological target: T30, ERK5 (Homo sapiens, UniProt Q13164)
# T30 construct: purchased Eurofins DiscoverX KINOMEscan
# T30 sequence (Q13164 whole entry): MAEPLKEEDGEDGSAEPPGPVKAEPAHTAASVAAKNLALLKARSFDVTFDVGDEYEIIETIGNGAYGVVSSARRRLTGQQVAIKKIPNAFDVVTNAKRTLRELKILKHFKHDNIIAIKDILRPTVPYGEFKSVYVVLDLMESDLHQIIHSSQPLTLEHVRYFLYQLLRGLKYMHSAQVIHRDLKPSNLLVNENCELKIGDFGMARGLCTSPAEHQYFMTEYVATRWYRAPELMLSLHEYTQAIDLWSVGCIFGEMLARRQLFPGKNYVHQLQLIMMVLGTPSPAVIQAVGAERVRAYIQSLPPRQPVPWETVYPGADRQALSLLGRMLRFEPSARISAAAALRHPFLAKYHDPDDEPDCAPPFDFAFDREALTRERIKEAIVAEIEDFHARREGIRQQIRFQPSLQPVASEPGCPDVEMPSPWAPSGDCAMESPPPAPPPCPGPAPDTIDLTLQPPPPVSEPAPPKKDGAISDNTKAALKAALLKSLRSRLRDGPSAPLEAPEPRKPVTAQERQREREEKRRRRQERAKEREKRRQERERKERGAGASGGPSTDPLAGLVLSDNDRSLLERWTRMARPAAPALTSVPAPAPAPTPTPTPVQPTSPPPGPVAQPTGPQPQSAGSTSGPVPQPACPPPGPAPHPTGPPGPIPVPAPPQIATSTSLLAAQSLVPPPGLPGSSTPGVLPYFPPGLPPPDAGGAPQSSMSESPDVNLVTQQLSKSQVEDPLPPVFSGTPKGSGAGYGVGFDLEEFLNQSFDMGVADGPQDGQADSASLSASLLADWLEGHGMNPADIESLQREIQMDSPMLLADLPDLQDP
# Outline: as §1
# [31] = biological target: T31, PIK3CB (Homo sapiens, UniProt P42338)
# T31 construct: purchased Eurofins DiscoverX KINOMEscan
# Outline: as §1
# [32] = biological target: T32, PDPK1 (Homo sapiens, UniProt O15530)
# T32 construct: purchased Eurofins DiscoverX KINOMEscan
# Outline: as §1
# [33] = biological target: T33, SLK (Homo sapiens, UniProt Q9H2G2)
# T33 construct: purchased Eurofins DiscoverX KINOMEscan
# Outline: as §1
# [34] = biological target: T34, NEK2 (Homo sapiens, UniProt P51955)
# T34 construct: purchased Eurofins DiscoverX KINOMEscan
# T34 sequence (P51955 whole entry): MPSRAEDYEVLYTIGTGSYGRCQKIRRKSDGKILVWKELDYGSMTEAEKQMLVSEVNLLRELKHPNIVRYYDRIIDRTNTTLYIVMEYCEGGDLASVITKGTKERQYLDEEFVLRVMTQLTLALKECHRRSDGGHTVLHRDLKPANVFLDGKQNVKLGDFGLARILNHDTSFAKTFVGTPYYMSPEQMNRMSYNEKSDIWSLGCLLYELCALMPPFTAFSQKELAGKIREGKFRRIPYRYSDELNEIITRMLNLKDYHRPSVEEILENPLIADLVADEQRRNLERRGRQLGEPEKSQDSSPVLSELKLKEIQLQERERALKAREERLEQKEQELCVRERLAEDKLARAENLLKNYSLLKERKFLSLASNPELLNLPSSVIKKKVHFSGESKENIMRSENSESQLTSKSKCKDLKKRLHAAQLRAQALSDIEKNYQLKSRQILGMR
# Outline: as §1
# [35] = biological target: T35, WEE2 (Homo sapiens, UniProt P0C1S8)
# T35 construct: purchased Eurofins DiscoverX KINOMEscan
# Outline: as §1
# [36] = biological target: T36, PRKG1 (Homo sapiens, UniProt Q13976)
# T36 construct: purchased Eurofins DiscoverX KINOMEscan
# T36 sequence (Q13976 whole entry): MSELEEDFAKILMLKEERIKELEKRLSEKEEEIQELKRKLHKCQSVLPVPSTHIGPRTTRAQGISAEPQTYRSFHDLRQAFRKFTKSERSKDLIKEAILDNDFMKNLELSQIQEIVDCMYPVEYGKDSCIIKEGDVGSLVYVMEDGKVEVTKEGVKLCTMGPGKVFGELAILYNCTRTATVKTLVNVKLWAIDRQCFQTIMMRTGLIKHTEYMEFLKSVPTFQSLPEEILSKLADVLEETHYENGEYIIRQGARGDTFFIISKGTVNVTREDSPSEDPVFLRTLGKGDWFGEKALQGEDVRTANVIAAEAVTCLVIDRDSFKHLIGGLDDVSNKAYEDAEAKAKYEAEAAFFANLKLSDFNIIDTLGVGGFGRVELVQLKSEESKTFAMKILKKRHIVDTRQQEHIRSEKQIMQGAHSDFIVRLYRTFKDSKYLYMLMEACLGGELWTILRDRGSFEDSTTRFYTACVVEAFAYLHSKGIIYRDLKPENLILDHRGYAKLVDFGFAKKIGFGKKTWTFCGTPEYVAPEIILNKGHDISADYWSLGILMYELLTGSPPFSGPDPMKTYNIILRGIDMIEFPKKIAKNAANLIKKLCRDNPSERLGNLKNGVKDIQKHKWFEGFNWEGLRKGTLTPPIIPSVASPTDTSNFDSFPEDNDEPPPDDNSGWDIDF
# Outline: as §1
# [37] = biological target: T37, AKT3 (Homo sapiens, UniProt Q9Y243)
# T37 construct: purchased Eurofins DiscoverX KINOMEscan
# T37 sequence (Q9Y243 whole entry): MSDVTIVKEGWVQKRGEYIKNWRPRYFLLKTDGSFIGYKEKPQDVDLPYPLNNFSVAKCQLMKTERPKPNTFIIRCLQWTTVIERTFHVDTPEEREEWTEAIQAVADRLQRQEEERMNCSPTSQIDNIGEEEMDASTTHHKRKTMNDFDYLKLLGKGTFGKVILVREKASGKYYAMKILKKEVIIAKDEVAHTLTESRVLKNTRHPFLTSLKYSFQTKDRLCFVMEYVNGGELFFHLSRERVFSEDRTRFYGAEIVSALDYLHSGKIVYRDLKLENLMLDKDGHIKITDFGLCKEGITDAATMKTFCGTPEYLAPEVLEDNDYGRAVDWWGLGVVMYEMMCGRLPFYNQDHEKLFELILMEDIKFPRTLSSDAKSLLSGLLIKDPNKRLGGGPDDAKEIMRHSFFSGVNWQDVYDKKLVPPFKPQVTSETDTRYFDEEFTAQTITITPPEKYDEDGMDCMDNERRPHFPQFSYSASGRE
# Outline: as §1
# [38] = biological target: T38, EGFR (S752-I759 del) (Homo sapiens, UniProt P00533, DEL752-759)
# T38 construct: purchased Eurofins DiscoverX KINOMEscan
# T38 sequence (P00533 with tags, fused parts or gaps DEL752-759 limits assumed): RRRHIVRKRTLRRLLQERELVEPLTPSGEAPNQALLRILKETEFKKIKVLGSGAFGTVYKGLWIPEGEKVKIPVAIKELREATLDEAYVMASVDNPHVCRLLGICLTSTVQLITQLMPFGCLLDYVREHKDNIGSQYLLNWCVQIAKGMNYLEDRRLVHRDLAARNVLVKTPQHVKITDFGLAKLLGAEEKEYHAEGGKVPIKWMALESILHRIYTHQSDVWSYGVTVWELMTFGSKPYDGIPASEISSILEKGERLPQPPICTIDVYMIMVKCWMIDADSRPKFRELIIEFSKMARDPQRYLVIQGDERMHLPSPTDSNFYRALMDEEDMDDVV
# Outline: as §1
compound,measurement,setting,value
"O=C1Nc2c(cc([N+](=O)[O-])c3c2CCCC3)C1=NO [Compound 5d, 3-(Hydroxyimino)-5-nitro-1,3,6,7,8,9-hexahydro-2H-benzo[g]indol-2-one]",inhibition at 10 µM,[1],13%
same,inhibition at 10 µM,[2],6%
same,inhibition at 10 µM,[3],51%
same,inhibition at 10 µM,[4],95.8%
same,inhibition at 10 µM,[5],95.9%
same,inhibition at 10 µM,[6],89.4%
same,inhibition at 10 µM,[7],53%
same,inhibition at 10 µM,[8],52%
same,inhibition at 10 µM,[9],90.7%
same,inhibition at 10 µM,[10],21%
same,inhibition at 10 µM,[11],2%
same,inhibition at 10 µM,[12],0%
same,inhibition at 10 µM,[13],0%
same,inhibition at 10 µM,[14],10%
same,inhibition at 10 µM,[15],80%
same,inhibition at 10 µM,[16],66%
same,inhibition at 10 µM,[17],50%
same,inhibition at 10 µM,[18],46%
same,inhibition at 10 µM,[19],30%
same,inhibition at 10 µM,[20],54%
same,inhibition at 10 µM,[21],0%
same,inhibition at 10 µM,[22],8%
same,inhibition at 10 µM,[23],9%
same,inhibition at 10 µM,[24],15%
same,inhibition at 10 µM,[25],34%
same,inhibition at 10 µM,[26],19%
same,inhibition at 10 µM,[27],0%
same,inhibition at 10 µM,[28],93.2%
same,inhibition at 10 µM,[29],0%
same,inhibition at 10 µM,[30],0%
same,inhibition at 10 µM,[31],0%
same,inhibition at 10 µM,[32],8%
same,inhibition at 10 µM,[33],63%
same,inhibition at 10 µM,[34],16%
same,inhibition at 10 µM,[35],0%
same,inhibition at 10 µM,[36],11%
same,inhibition at 10 µM,[37],9%
same,inhibition at 10 µM,[38],16%

# Reference: PMC12300041, “Tricyclic Isatin Derivatives as Anti-Inflammatory Compounds with High Kinase Binding Affinity” (Molecules, 2025)
